Columns and labels:
PC3-DAB2IP KD cells [1] = assay: In vivo metastasis assay, orthotopic PC3-DAB2IP KD prostate xenograft
Protocol: PC-3 cells (from ATCC) engineered to express both GFP and DAB2IP shRNA were characterized previously. Cells were suspended in serum free medium and 2,000 cells injected directly into the prostate glands of 7 week old NCr athymic nu/nu mice. Three days after injection, mice were divided into two groups, one receiving vehicle alone (5% DMSO/10% Cremophor/PBS) and another 50 mg/kg doxazosin via intraperitoneal injection daily for 10 days. Mice were sacrificed 14 days later and intact primary tumors were imaged under a UV light box with a Digital camera. Lungs were dissected into separate lobes and GFP-expressing metastases were imaged using an inverted fluorescent microscope (Leica). Metastases were enumerated in the two largest lung lobes and placed into size categories based upon their diameters, measured in number of cells (1-10 cells). Total metastatic burden was calculated in each mouse using the following equation: [burden=Σ (# of foci×focus diameter)].
Historically, studies of prostate cancer metastasis in the preclinical setting have been hampered by the lack of human cell lines that can produce significant metastasis in a reproducible manner. […] We took advantage of this newly established model system to test how doxazosin can affect metastasis of prostate cancer. To this end, PC3-DAB2IP KD cells were injected orthotopically into the prostate glands of nude mice. Three days later, recipient mice were subject to systemic treatment by daily i.p. injection of either vehicle control, or 50 mg/kg doxazosin for 10 days. Since these cells also expressed green fluorescent protein (GFP), freshly dissected primary tumors could be readily visualized in a GFP light box (FIG. 7A top panels), and distal metastases to lungs and lymph nodes could be observed and quantified under a fluorescent microscope (FIG. 7A lower panels).
Next, we determined whether doxazosin treatment might impact overall survival. Nude mice orthotopically implanted with the PC3-DAP2IP KD cells were treated for 10 days with either doxazosin, or vehicle control and monitored for survival.

EphA2 = EphA2 (Homo sapiens, UniProt P29317); assay: EphA2 receptor internalization in U373-A2 glioma cells (immunofluorescence); type: cell-based; design: expressed in transfected cells; host or cells: MDA-MB-231 (MDA-231-A2), HEK 293 (HEK 293-A2), A172 (A172-A2), U373 (U373-A2); settings: 60 min, 50 μM DZ or 1 μg/ml ephrin-A1-Fc
EphA2, sequence (P29317 24-976): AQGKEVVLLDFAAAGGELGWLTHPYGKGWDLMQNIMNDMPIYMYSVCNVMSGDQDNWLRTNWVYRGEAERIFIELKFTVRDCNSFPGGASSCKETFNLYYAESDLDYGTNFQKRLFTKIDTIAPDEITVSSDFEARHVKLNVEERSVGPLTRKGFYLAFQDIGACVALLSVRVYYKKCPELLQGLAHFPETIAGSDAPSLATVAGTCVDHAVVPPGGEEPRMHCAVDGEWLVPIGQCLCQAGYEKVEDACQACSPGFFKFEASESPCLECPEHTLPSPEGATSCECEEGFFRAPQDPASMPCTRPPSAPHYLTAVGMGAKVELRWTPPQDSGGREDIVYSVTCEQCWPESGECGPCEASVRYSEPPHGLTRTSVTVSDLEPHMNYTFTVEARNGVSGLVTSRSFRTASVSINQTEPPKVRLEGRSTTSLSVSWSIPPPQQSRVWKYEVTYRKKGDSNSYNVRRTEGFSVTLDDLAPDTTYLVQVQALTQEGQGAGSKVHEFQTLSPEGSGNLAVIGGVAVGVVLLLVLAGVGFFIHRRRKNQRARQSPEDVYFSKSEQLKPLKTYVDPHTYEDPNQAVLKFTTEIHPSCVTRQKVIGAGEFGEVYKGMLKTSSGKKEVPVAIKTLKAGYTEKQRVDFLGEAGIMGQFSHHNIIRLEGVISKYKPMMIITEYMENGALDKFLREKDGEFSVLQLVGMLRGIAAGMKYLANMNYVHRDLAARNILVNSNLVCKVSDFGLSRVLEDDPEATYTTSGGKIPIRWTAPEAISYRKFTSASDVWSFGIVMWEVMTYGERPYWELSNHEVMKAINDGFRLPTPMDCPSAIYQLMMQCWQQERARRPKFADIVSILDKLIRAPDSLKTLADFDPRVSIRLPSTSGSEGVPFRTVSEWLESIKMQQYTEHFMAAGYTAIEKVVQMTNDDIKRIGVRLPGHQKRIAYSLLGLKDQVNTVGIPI
Protocol: Cells were plated in 24-well dishes at a density of 100,000 cells/well and grown for 24 hours prior to stimulation with appropriate compounds and ephrins for the given amounts of time. Compounds were prepared in DMSO at 500 times the final concentrations and 0.2% DMSO was used as vehicle control. Following treatment, cells were lysed directly in SDS Gel Loading Buffer and immunoblotted as described previously. Immunoprecipitation and immunofluorescence staining was performed as described. For immunoprecipitation, 300,000 cells/well were plated in 6-well dishes and lysed in modified RIPA Buffer (20 mM Tris-HCl pH 7.4, 20 mM NaF, 150 mM NaCl, 10% glycerol, 0.1% SDS, 0.5% DCA, 2 mM EDTA, 1% Triton X-100) following treatment. Either […] of ephrin-A1-Fc, or […] of EphA2 mouse monoclonal antibody (Clone D7, Millipore) were used, and mouse IgG was used as a negative control for EphA2 IP.
Similar to other receptor tyrosine kinases, activation of the EphA2 receptor by its ligand, ephrin-A1, results in receptor internalization and eventual degradation. […] This was first performed using the U373 glioma cell line engineered to overexpress EphA2.

PC3-DAB2IP KD cells [2] = assay: Haptotactic cell migration toward fibronectin (modified Boyden chamber); type: cell-based, human; settings: 4 hours
From the text: One of the well-established functions of Eph receptors is the ligand-dependent repulsive guidance of cell migration. As a ligand-mimicking agonist for EphA2, doxazosin is expected to activate EphA2 on tumor cells and repulse migrating tumor cells in vitro. To test this possibility, we first investigated the effects of doxazosin on integrin-mediated haptotactic cell migration toward fibronectin in a modified Boyden chamber cell migration assay. […] The inhibitory effects were observed when doxazosin was presented either in the bottom chamber, or in both top and bottom chambers in the Transwell assay system. […] Therefore, doxazosin can recapitulate a key function attributed to its native ligands, i.e., negative regulation of cell migration.

EphA3 = molecular target: T1, EphA3 (Homo sapiens, UniProt P29320); assay: Eph receptor activation in HEK 293 cells overexpressing EphA3; type: cell-based; settings: HEK 293 cells overexpressing EphA3, compared to EphA2 and EphA4
T1 construct: expressed in transfected cells; host or cells: HEK 293
T1 sequence (P29320 21-983): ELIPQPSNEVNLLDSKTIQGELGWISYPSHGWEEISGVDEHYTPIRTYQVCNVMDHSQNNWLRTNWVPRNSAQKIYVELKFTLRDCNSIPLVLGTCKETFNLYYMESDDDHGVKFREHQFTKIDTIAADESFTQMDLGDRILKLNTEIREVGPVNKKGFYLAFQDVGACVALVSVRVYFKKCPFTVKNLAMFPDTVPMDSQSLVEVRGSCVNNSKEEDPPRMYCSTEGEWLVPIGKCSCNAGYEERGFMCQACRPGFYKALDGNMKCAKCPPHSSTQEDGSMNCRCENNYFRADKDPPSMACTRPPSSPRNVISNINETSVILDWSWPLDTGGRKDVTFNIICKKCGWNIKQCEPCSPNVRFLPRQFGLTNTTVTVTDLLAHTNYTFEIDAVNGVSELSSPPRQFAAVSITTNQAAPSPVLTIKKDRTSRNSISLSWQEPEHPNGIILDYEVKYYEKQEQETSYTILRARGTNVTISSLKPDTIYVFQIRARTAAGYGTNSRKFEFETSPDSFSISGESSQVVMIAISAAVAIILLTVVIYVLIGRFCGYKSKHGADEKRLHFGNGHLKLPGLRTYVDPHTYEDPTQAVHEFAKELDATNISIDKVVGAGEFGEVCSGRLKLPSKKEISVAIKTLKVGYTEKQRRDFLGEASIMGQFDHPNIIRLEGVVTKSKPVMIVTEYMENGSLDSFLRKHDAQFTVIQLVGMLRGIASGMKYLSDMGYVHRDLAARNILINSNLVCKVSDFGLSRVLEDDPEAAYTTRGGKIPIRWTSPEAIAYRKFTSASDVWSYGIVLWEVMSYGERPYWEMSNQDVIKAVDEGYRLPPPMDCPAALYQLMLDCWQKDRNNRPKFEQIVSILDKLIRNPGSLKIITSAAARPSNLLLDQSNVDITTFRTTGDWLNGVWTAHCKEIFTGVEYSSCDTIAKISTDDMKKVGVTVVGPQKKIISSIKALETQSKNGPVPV
Protocol: Cells were plated in 24-well dishes at a density of 100,000 cells/well and grown for 24 hours prior to stimulation with appropriate compounds and ephrins for the given amounts of time. Compounds were prepared in DMSO at 500 times the final concentrations and 0.2% DMSO was used as vehicle control. Following treatment, cells were lysed directly in SDS Gel Loading Buffer and immunoblotted as described previously. […] For this purpose, HEK 293 cell lines overexpressing EphA1, EphA2, EphA3, EphA4, and EphB3 kinases were utilized.

[3] = nude mice, 50 mg/kg i.p. daily for 10 days

SMILES: COc1cc2nc(N3CCN(C(=O)C4COc5ccccc5O4)CC3)nc(N)c2cc1OC (centres unmarked) [doxazosin]
- overall survival (PC3-DAB2IP KD cells [1]; at 27 days after cell implantation, treated for 10 days, vehicle 30%): 70%
- behavioral abnormalities (PC3-DAB2IP KD cells [1]; [3]): nor were there any signs of behavioral abnormalities
- body weight compared with vehicle control (PC3-DAB2IP KD cells [1]; [3]): no changes in body weight
- number of lung metastases compared to vehicle control (PC3-DAB2IP KD cells [1]; [3]): significant reduction in the number of lung metastases
- reduction in primary tumor sizes (PC3-DAB2IP KD cells [1]; [3]): the difference was not statistically significant
- sizes of lung metastases compared to vehicle-treated mice (PC3-DAB2IP KD cells [1]; [3]): significantly smaller
- total metastatic burden (numbers and sizes of metastases) (PC3-DAB2IP KD cells [1]; [3]): even more significantly reduced
- tumor cell dissemination to local lymph nodes (PC3-DAB2IP KD cells [1]; [3]): reduced, but not to a significant extent
- EphA2 internalization (EphA2): significant EphA2 internalization
- haptotactic cell migration toward fibronectin (PC3-DAB2IP KD cells [2]): dose-dependent inhibition of cell migration
- EphA3 activation, Eph receptor panel (EphA3): weak
